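Tested at 5 concentrations; 48 h exposure; 96-well plates; endpoints linearly interpolated, else capped at highest concentration. Here, GI50 denotes the concentration required for 50% inhibition of growth.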 Calls of active or inactive are those of the source. Rule as the data show it: active = GI50 up to about 1.1 µM and inactive = higher.
Key:
Test in all cases: inhibition of tumour cell growth, NCI panel, 48 h
SR = test system: SR
SF-539 = test system: SF-539
OVCAR-5 = test system: OVCAR-5
CCRF-CEM = test system: CCRF-CEM
LOX IMVI = test system: LOX IMVI
SW-620 = test system: SW-620
A549 = test system: A549
KM12 = test system: KM12
UACC-257 = test system: UACC-257
SF-268 = test system: SF-268
SK-MEL-28 = test system: SK-MEL-28
NCI-H460 = test system: NCI-H460
KM-20L2 = test system: KM-20L2
LXFL 529 = test system: LXFL 529
SNB-75 = test system: SNB-75
OVCAR-4 = test system: OVCAR-4
K562 = test system: K562
HL-60 = test system: HL-60
RXF 631 = test system: RXF 631
HCT-116 = test system: HCT-116
786-0 = test system: 786-0
CAKI-1 = test system: CAKI-1
TK-10 = test system: TK-10
SNB-78 = test system: SNB-78
NCI-H522 = test system: NCI-H522
SF-295 = test system: SF-295
NCI-H226 = test system: NCI-H226
RXF 393 = test system: RXF 393
OVCAR-8 = test system: OVCAR-8
SN12C = test system: SN12C
HCT-15 = test system: HCT-15
SK-OV-3 = test system: SK-OV-3
COLO 205 = test system: COLO 205
M14 = test system: M14
ACHN = test system: ACHN
NCI-H23 = test system: NCI-H23
M19-MEL = test system: M19-MEL
SNB-19 = test system: SNB-19
HCC 2998 = test system: HCC 2998
HOP-62 = test system: HOP-62
UACC-62 = test system: UACC-62
RPMI-8226 = test system: RPMI-8226
MOLT-4 = test system: MOLT-4
HT-29 = test system: HT-29
SK-MEL-5 = test system: SK-MEL-5
U-251 = test system: U-251
OVCAR-3 = test system: OVCAR-3
IGROV-1 = test system: IGROV-1
UO-31 = test system: UO-31
XF498 = test system: XF498
Malme-3M = test system: Malme-3M
DLD-1 = test system: DLD-1
EKVX = test system: EKVX
A498 = test system: A498
HOP-92 = test system: HOP-92
SK-MEL-2 = test system: SK-MEL-2
DMS-273 = test system: DMS-273

`CCN(CC)Cc1cc(Nc2ccnc3ccc4nn(C)nc4c23)ccc1O` was tested, and the GI50 (SR) was 74.6 µM (inactive), the GI50 (SF-539) was 13.6 µM (inactive) and the GI50 (OVCAR-5) was 12.6 µM (inactive). For the same molecule, the GI50 (CCRF-CEM) was > 100 µM (inactive), the GI50 (LOX IMVI) was 7.73 µM (inactive) and the GI50 (SW-620) was 5.55 µM (inactive). For the same molecule, the GI50 (A549) was 21.1 µM (inactive), the GI50 (KM12) was 10.5 µM (inactive) and the GI50 (UACC-257) was 13.9 µM (inactive). For the same molecule, the GI50 (SF-268) was 13.6 µM (inactive), the GI50 (SK-MEL-28) was 14 µM (inactive) and the GI50 (NCI-H460) was 5.64 µM (inactive). For the same molecule, the GI50 (KM-20L2) was 6.89 µM (inactive), the GI50 (LXFL 529) was 12.6 µM (inactive) and the GI50 (SNB-75) was 12.3 µM (inactive). For the same molecule, the GI50 (OVCAR-4) was 10.4 µM (inactive), the GI50 (K562) was > 100 µM (inactive) and the GI50 (HL-60) was 84.9 µM (inactive). For the same molecule, the GI50 (RXF 631) was 7.78 µM (inactive), the GI50 (HCT-116) was 4.79 µM (inactive) and the GI50 (786-0) was 11.8 µM (inactive). For the same molecule, the GI50 (CAKI-1) was 28.8 µM (inactive), the GI50 (TK-10) was 22.4 µM (inactive) and the GI50 (SNB-78) was 15.9 µM (inactive). For the same molecule, the GI50 (NCI-H522) was 9.29 µM (inactive), the GI50 (SF-295) was 13.6 µM (inactive) and the GI50 (NCI-H226) was 22.5 µM (inactive). For the same molecule, the GI50 (RXF 393) was 9.25 µM (inactive), the GI50 (OVCAR-8) was 11.4 µM (inactive) and the GI50 (SN12C) was 11.3 µM (inactive). For the same molecule, the GI50 (HCT-15) was 16.7 µM, the GI50 (SK-OV-3) was 18.5 µM (inactive) and the GI50 (COLO 205) was 5.02 µM (inactive). For the same molecule, the GI50 (M14) was 14.3 µM (inactive), the GI50 (ACHN) was 9.25 µM (inactive) and the GI50 (NCI-H23) was 15.3 µM (inactive). For the same molecule, the GI50 (M19-MEL) was 11.9 µM (inactive), the GI50 (SNB-19) was 28 µM (inactive) and the GI50 (HCC 2998) was 13.3 µM (inactive). For the same molecule, the GI50 (HOP-62) was 16.9 µM (inactive), the GI50 (UACC-62) was 13.7 µM (inactive) and the GI50 (RPMI-8226) was 7.85 µM (inactive). The GI50 (MOLT-4) was 6.58 µM (inactive), the GI50 (HT-29) was 4.7 µM (inactive) and the GI50 (SK-MEL-5) was 16.3 µM (inactive). For the same molecule, the GI50 (U-251) was 15.3 µM (inactive), the GI50 (OVCAR-3) was 12.3 µM (inactive) and the GI50 (IGROV-1) was 25.2 µM (inactive). The GI50 (UO-31) was 11.9 µM (inactive), the GI50 (XF498) was 11.8 µM (inactive) and the GI50 (Malme-3M) was 16.9 µM (inactive).
With `O=C1c2ccccc2C(=O)c2c(O)c(O)cc(O)c21` [PURPURIN] the GI50 (DLD-1) was 31.5 µM (inactive), the GI50 (SF-539) was 17.8 µM (inactive) and the GI50 (OVCAR-5) was 80.7 µM (inactive). For the same molecule, the GI50 (CCRF-CEM) was 35 µM (inactive), the GI50 (LOX IMVI) was 43.7 µM (inactive) and the GI50 (SW-620) was 40.1 µM (inactive). For the same molecule, the GI50 (EKVX) was 50.9 µM (inactive), the GI50 (A498) was 31 µM (inactive) and the GI50 (A549) was 44.7 µM (inactive). For the same molecule, the GI50 (KM12) was 41.5 µM (inactive), the GI50 (UACC-257) was 49.4 µM (inactive) and the GI50 (SF-268) was 42.4 µM (inactive). For the same molecule, the GI50 (HOP-92) was 25.2 µM (inactive), the GI50 (SK-MEL-28) was 38.6 µM (inactive) and the GI50 (NCI-H460) was 34.5 µM (inactive). The GI50 (LXFL 529) was 37.2 µM (inactive), the GI50 (SNB-75) was 85.9 µM (inactive) and the GI50 (OVCAR-4) was 41 µM (inactive). For the same molecule, the GI50 (SK-MEL-2) was 21.2 µM (inactive), the GI50 (K562) was 36.5 µM (inactive) and the GI50 (HL-60) was 24 µM (inactive). For the same molecule, the GI50 (RXF 631) was 39.4 µM (inactive), the GI50 (HCT-116) was 24.5 µM (inactive) and the GI50 (786-0) was 25.8 µM (inactive). The GI50 (CAKI-1) was 44 µM (inactive), the GI50 (TK-10) was 81.3 µM (inactive) and the GI50 (SNB-78) was 38.2 µM (inactive). The GI50 (NCI-H522) was 33.6 µM (inactive), the GI50 (SF-295) was 51.6 µM (inactive) and the GI50 (RXF 393) was 21.7 µM (inactive). The GI50 (OVCAR-8) was 55.5 µM (inactive), the GI50 (SN12C) was 34.7 µM (inactive) and the GI50 (HCT-15) was 36.5 µM. The GI50 (SK-OV-3) was 31.8 µM (inactive), the GI50 (COLO 205) was 34 µM (inactive) and the GI50 (M14) was 41.3 µM (inactive). For the same molecule, the GI50 (ACHN) was 27.4 µM (inactive), the GI50 (NCI-H23) was 29.9 µM (inactive) and the GI50 (M19-MEL) was 36.7 µM (inactive). The GI50 (SNB-19) was 34.1 µM (inactive), the GI50 (HCC 2998) was 32.7 µM (inactive) and the GI50 (HOP-62) was 23.7 µM (inactive). The GI50 (UACC-62) was 26.1 µM (inactive), the GI50 (RPMI-8226) was 25.8 µM (inactive) and the GI50 (MOLT-4) was 34 µM (inactive). The GI50 (SK-MEL-5) was 37.9 µM (inactive), the GI50 (U-251) was 35.6 µM (inactive) and the GI50 (OVCAR-3) was 22.4 µM (inactive). The GI50 (IGROV-1) was 31.6 µM (inactive), the GI50 (DMS-273) was 38.1 µM (inactive) and the GI50 (UO-31) was 19 µM (inactive). For the same molecule, the GI50 (XF498) was 22.9 µM (inactive) and the GI50 (Malme-3M) was 32.7 µM (inactive).
